According to PubChem BioAssay (NCI):
“And” between values parts separate entries of the source, which are not always exact repeats. Identical values can stand only once.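 All cell lines were grown in 96-well plates and treated with compound for 48 hours. Here, GI50 denotes the concentration required for 50% inhibition of growth. Definition used: TGI = concentration required for complete inhibition of growth.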

Assays:
Test in all cases: DTP human tumour cell line panel, 48 h
SNB-78 CNS = test system: SNB-78 CNS
HL-60(TB) leukemia = test system: HL-60(TB) leukemia
M19-MEL melanoma = test system: M19-MEL melanoma
SNB-75 CNS = test system: SNB-75 CNS
DLD-1 colon = test system: DLD-1 colon
DMS 273 small cell lung = test system: DMS 273 small cell lung
M14 melanoma = test system: M14 melanoma
HOP-18 NSCLC = test system: HOP-18 NSCLC
DU-145 prostate = test system: DU-145 prostate
BT-549 breast = test system: BT-549 breast
MCF7 breast = test system: MCF7 breast
T-47D breast = test system: T-47D breast

| Structure (SMILES) | TGI (SNB-78 CNS) [µM] | TGI (HL-60(TB) leukemia) | TGI (M19-MEL melanoma) [µM] | TGI (SNB-75 CNS) | TGI (DLD-1 colon) [µM] | TGI (DMS 273 small cell lung) [µM] | TGI (M14 melanoma) [µM] | TGI (HOP-18 NSCLC) [µM] | TGI (DU-145 prostate) [µM] | TGI (BT-549 breast) | TGI (MCF7 breast) [µM] | TGI (T-47D breast) [µM] | GI50 (M14 melanoma) | GI50 (DU-145 prostate) | GI50 (HL-60(TB) leukemia) | GI50 (BT-549 breast) [µM] | GI50 (SNB-75 CNS) | GI50 (MCF7 breast) [µM] | GI50 (T-47D breast) [µM] |
| --- | --- | --- | --- | --- | --- | --- | --- | --- | --- | --- | --- | --- | --- | --- | --- | --- | --- | --- | --- |
| O=C1CCCCCCCCCCC1CN1CCCCC1 (stereo unspecified) | > 100 | > 100 µM | > 100 | > 100 µM | > 100 | > 100 | – | – | – | – | – | – | – | – | – | – | – | – | – |
| CCOC(=N)CC(=O)c1ccccc1 | > 100 | > 100 µM | > 100 | > 100 µM | > 100 | > 100 | > 100 | > 100 | – | – | – | – | – | – | – | – | – | – | – |
| Cn1c(=O)c2nc(-c3ccc(Cl)cc3)oc2n(C)c1=O | > 100 | > 100 µM | > 100 | > 100 µM | > 100 | > 100 | > 100 | > 100 | – | – | – | – | – | – | – | – | – | – | – |
| CCOC(=N)/C(=C1\OC(N)=C(c2ccc(Cl)cc2)C1=O)c1ccc(Cl)cc1 | > 100 | 42 µM | 34.7 | 38.5 µM | 28.8 | 34.4 | 31.6 | 72.6 | – | – | – | – | – | – | – | – | – | – | – |
| Cc1c(C(=O)/C=C/c2ccccc2O)c(=O)n(-c2ccccc2)n1C | > 100 | – | 74.6 | > 100 µM | 27.9 | > 100 | – | – | – | – | – | – | – | – | – | – | – | – | – |
| CC(=O)On1c(-c2ccccc2-c2nc3ccccc3n2OC(C)=O)nc2ccccc21 | – | 72.8 µM | – | > 100 µM | – | – | > 100 | – | > 100 | > 100 µM | > 100 | > 100 | – | – | – | – | – | – | – |
| CN(C)C(=O)OC(Cn1cncn1)(Cn1cncn1)c1ccc(Cl)cc1Cl | – | > 100 µM | – | > 100 µM | – | – | > 100 | – | > 100 | > 100 µM | > 100 | > 100 | – | – | – | – | – | – | – |
| O=C(CNc1ccccc1[N+](=O)[O-])Nn1c(-c2ccccc2)nc2ccccc2c1=O | – | > 100 µM | – | 41.8 µM | – | – | 38.1 | – | > 100 | 35.3 µM | 34.2 | 39.2 | – | – | – | – | – | – | – |
| OCC(O)c1nc2ccc3[nH]ncc3c2c2c1CCCC2 (stereo unspecified) | – | 3.14 µM | – | 1.6 µM | – | – | 2.78 | – | > 50 | 2.2 µM | > 50 | > 50 | 1.17 µM | 1.59 µM | 1.24 µM | 0.934 | 0.849 µM | 0.931 | 1.6 |
| CCCN(CCCC(NC(C)=O)C(=O)NCc1ccccc1)C(=O)NCCCl (stereo unspecified) | – | > 100 µM | > 100 | > 100 µM | > 100 | > 100 | > 100 | > 100 | – | – | – | – | – | – | – | – | – | – | – |
| COc1ccc(-c2c3c(n(C4OC(COC(C)=O)C(OC(C)=O)C(OC(C)=O)C4OC(C)=O)c(=S)c2C#N)CC(C)(C)CC3=O)cc1 (stereo unspecified) | – | 42.5 µM and > 100 µM | – | 97.9 µM and > 100 µM | – | – | > 100 | – | > 100 | 93.3 µM and > 100 µM | > 100 | > 100 | 49.7 µM and > 100 µM | 46.8 µM and > 100 µM | 18.4 µM and 47.6 µM | – | 25 µM and 67.8 µM | – | – |
| COC(=O)C(Cc1nc2ccccc2[nH]c1=O)C(=O)C(=O)Nc1ccc([N+](=O)[O-])cc1[N+](=O)[O-] (stereo unspecified) | > 100 | 66.5 µM | 33.9 | 39.3 µM | 42 | 47.5 | 32.4 | 32.1 | – | – | – | – | – | – | – | – | – | – | – |
